Data on seven molecules can be found in US7476685B2, “Pyridine carboxamide derivatives and their use as pesticides” (Merial Limited, priority 2002, dated 2009).

Molecules are shown by their SMILES.

As a reminder, the mortality is the percentage killed.

One experiment deals with black bean aphids (Aphis fabae). The experiment is described as follows: Method A: field bean plants and black bean aphids dipped into aqueous solution of the formulated preparation. The format is in vivo. The conditions noted are these: 100 ppm (content of active compound), plants (Vicia faba) and aphids dipped 5 seconds, after 3 and 6 days of storage, read-out: mortality among the aphids. The method, then: Germinated field bean seeds (Vicia faba) with seed roots were transferred into brown glass bottles filled with tap water and then populated with about 100 black bean aphids (Aphis fabae). Plants and aphids were then dipped into an aqueous solution of the formulated preparation to be examined for 5 seconds. After they had drained, plants and animals were stored in a climatized chamber (16 hours of light/day, 25° C., 40-60% relative atmospheric humidity). After 3 and 6 days of storage, the effect of the preparation on the aphids was determined.
For the molecule `CC(C)N(O)C(=O)NC(=O)c1cnccc1C(F)(F)F` [Compound A-540, 1-hydroxyl-1-isopropyl-3-(4-trifluoromethyl-3-pyridylcarbonyl)urea], the mortality at 100 ppm is not below 50%.
Still for that read-out and setting: the value for `O=C(NC(=O)N(CCO)Cc1ccccc1)c1cnccc1C(F)(F)F` [Compound A-862, 1-benzyl-1-(2-hydroxyethyl)-3-(4-trifluoromethyl-3-pyridylcarbonyl)urea] was not below 50%; that for `CN(C(=S)NC(=O)c1cnccc1C(F)(F)F)c1ccccc1` [Compound B-349, 1-methyl-1-phenyl-3-(4-trifluoromethyl-3-pyridylcarbonyl)thiourea] was not below 50%.
Still for that read-out and setting: the same measure for `C=CCN(C(=O)c1cnccc1C(F)(F)F)C(=O)N(C)OC` [Compound E-85, 1-methyl-1-methoxy-3-allyl-3-(4-trifluoromethyl-3-pyridylcarbonyl)urea]: not below 50%.
Still for that read-out and setting: the value for `CC(C)N1OCCN(C(=O)c2cnccc2C(F)(F)F)C1=O` [Compound U-3, 2-isopropyl-4-(4-trifluoromethyl-3-pyridylcarbonyl)-perhydro-1,2,4-oxadiazin-3-one] was not below 50%; that for `O=C(NC(=S)OCC(F)(F)F)c1cnccc1C(F)(F)F` [Compound X-45, 2,2,2-trifluoroethyl N-(4-trifluoromethyl-3-pyridylcarbonyl)thiocarbamate] was not below 50%.

The next experiment has the same test system. The experiment is described as follows: Method B: root-systemic action against black bean aphids on field bean, preparation pipetted into the water. The format is in vivo. The following applies: 10 ppm (content of active compound), 4 ml solution pipetted into bottle with Vicia faba roots, after 3 and 6 days of storage, read-out: mortality among the aphids, by root-systemic action. Here is the method:
Germinated field bean seeds (Vicia faba) with seed roots were transferred into brown glass bottles filled with tap water. Four milliliters of an aqueous solution of the formulated preparation to be examined were pipetted into the brown glass bottle. The field bean was then heavily populated with about 100 black bean aphids (Aphis fabae). Plants and aphids were then stored in a climatized chamber (16 hours of light/day, 25° C., 40-60% relative atmospheric humidity). After 3 and 6 days of storage, the root-systemic effect of the preparation on the aphids was determined.
Take `CON(C)C(=O)NC(=O)c1cnccc1C(F)(F)F` [Compound A-313, 1-methyl-1-methoxy-3-(4-trifluoromethyl-3-pyridylcarbonyl)urea]: the mortality at 10 ppm was not below 80%.
The same measure, in the same setting: the value for `CC(C)N(O)C(=O)NC(=O)c1cnccc1C(F)(F)F` [Compound A-540, 1-hydroxyl-1-isopropyl-3-(4-trifluoromethyl-3-pyridylcarbonyl)urea] was not below 80%; that for `O=C(NC(=O)N(CCO)Cc1ccccc1)c1cnccc1C(F)(F)F` [Compound A-862, 1-benzyl-1-(2-hydroxyethyl)-3-(4-trifluoromethyl-3-pyridylcarbonyl)urea] was not below 80%.
In the case of `CN(C(=S)NC(=O)c1cnccc1C(F)(F)F)c1ccccc1` [Compound B-349, 1-methyl-1-phenyl-3-(4-trifluoromethyl-3-pyridylcarbonyl)thiourea], the mortality at 10 ppm is not below 80%.
Take `C=CCN(C(=O)c1cnccc1C(F)(F)F)C(=O)N(C)OC` [Compound E-85, 1-methyl-1-methoxy-3-allyl-3-(4-trifluoromethyl-3-pyridylcarbonyl)urea]: the mortality at 10 ppm was not below 80%.
The same measure, in the same setting: the value for `CC(C)N1OCCN(C(=O)c2cnccc2C(F)(F)F)C1=O` [Compound U-3, 2-isopropyl-4-(4-trifluoromethyl-3-pyridylcarbonyl)-perhydro-1,2,4-oxadiazin-3-one] was not below 80%; that for `O=C(NC(=S)OCC(F)(F)F)c1cnccc1C(F)(F)F` [Compound X-45, 2,2,2-trifluoroethyl N-(4-trifluoromethyl-3-pyridylcarbonyl)thiocarbamate] was not below 80%.
